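96-well plates; 48 h exposure; 5 concentrations. Endpoints by linear interpolation between flanking doses. Not reached: highest tested concentration assigned. The concentration for 50% growth inhibition is given as GI50. TGI: concentration producing complete growth inhibition.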
Tests used:
Assay in all cases: NCI anticancer screen, dose series, 48 h
SNB-19 CNS = tested on: SNB-19 CNS
MALME-3M melanoma = tested on: MALME-3M melanoma
T-47D breast = tested on: T-47D breast
SNB-75 CNS = tested on: SNB-75 CNS
SK-MEL-28 melanoma = tested on: SK-MEL-28 melanoma
SF-539 CNS = tested on: SF-539 CNS
SK-MEL-2 melanoma = tested on: SK-MEL-2 melanoma
HOP-62 NSCLC = tested on: HOP-62 NSCLC
OVCAR-5 ovarian = tested on: OVCAR-5 ovarian
MDA-MB-231 breast = tested on: MDA-MB-231 breast
RPMI-8226 leukemia = tested on: RPMI-8226 leukemia
HCC-2998 colon = tested on: HCC-2998 colon
LOX IMVI melanoma = tested on: LOX IMVI melanoma
MDA-MB-435 = tested on: MDA-MB-435
A549 NSCLC = tested on: A549 NSCLC
TK-10 renal = tested on: TK-10 renal
SK-OV-3 ovarian = tested on: SK-OV-3 ovarian
UACC-257 melanoma = tested on: UACC-257 melanoma
CAKI-1 renal = tested on: CAKI-1 renal
PC-3 prostate = tested on: PC-3 prostate
M14 melanoma = tested on: M14 melanoma
OVCAR-8 ovarian = tested on: OVCAR-8 ovarian
NCI-H226 lung = tested on: NCI-H226 lung
HOP-92 NSCLC = tested on: HOP-92 NSCLC
U251 CNS = tested on: U251 CNS
OVCAR-3 ovarian = tested on: OVCAR-3 ovarian
ACHN renal = tested on: ACHN renal
SF-268 CNS = tested on: SF-268 CNS
DU-145 prostate = tested on: DU-145 prostate
HT29 colon = tested on: HT29 colon
K-562 leukemia = tested on: K-562 leukemia
BT-549 breast = tested on: BT-549 breast
NCI-H460 lung = tested on: NCI-H460 lung
A498 renal = tested on: A498 renal
HCT-116 colon = tested on: HCT-116 colon
NCI-H23 lung = tested on: NCI-H23 lung
UO-31 renal = tested on: UO-31 renal
UACC-62 melanoma = tested on: UACC-62 melanoma
KM12 colon = tested on: KM12 colon
786-0 renal = tested on: 786-0 renal
SW-620 colon = tested on: SW-620 colon
NCI/ADR-RES ovarian = tested on: NCI/ADR-RES ovarian
IGROV1 ovarian = tested on: IGROV1 ovarian
COLO 205 colon = tested on: COLO 205 colon
NCI-H522 lung = tested on: NCI-H522 lung
SF-295 CNS = tested on: SF-295 CNS
HCT-15 colon = tested on: HCT-15 colon
RXF 393 renal = tested on: RXF 393 renal
MCF7 breast = tested on: MCF7 breast
SK-MEL-5 melanoma = tested on: SK-MEL-5 melanoma
EKVX NSCLC = tested on: EKVX NSCLC
MOLT-4 leukemia = tested on: MOLT-4 leukemia
HS 578T breast = tested on: HS 578T breast
SN12C renal = tested on: SN12C renal
CCRF-CEM leukemia = tested on: CCRF-CEM leukemia

`O=C(O)[C@@H]1CCCN1Cc1cc2cc3c(cc2c2cc(OCc4ccccc4)ccc12)OCO3` showed a GI50 (SNB-19 CNS) of 18.5 µM, a TGI (SNB-19 CNS) of 48.3 µM and a GI50 (MALME-3M melanoma) of 25.8 µM. It also gave a TGI (MALME-3M melanoma) of 60.1 µM, a GI50 (T-47D breast) of 19.2 µM and a TGI (T-47D breast) of 54 µM. The GI50 (SNB-75 CNS) was 21.1 µM, the TGI (SNB-75 CNS) was 52.4 µM and the GI50 (SK-MEL-28 melanoma) was 19.4 µM. It also gave a TGI (SK-MEL-28 melanoma) of 43.9 µM, a GI50 (SF-539 CNS) of 25.1 µM and a TGI (SF-539 CNS) of 60.1 µM. For the same compound, the GI50 (SK-MEL-2 melanoma) was 20.1 µM, the TGI (SK-MEL-2 melanoma) was 45.5 µM and the GI50 (HOP-62 NSCLC) was 51.2 µM. It also gave a TGI (HOP-62 NSCLC) of over 100 µM, a GI50 (OVCAR-5 ovarian) of 21.4 µM and a TGI (OVCAR-5 ovarian) of 54.9 µM. The GI50 (MDA-MB-231 breast) was 15 µM, the TGI (MDA-MB-231 breast) was 42.6 µM and the GI50 (RPMI-8226 leukemia) was 17 µM. The TGI (RPMI-8226 leukemia) was 60.9 µM, the GI50 (HCC-2998 colon) was 36.4 µM and the TGI (HCC-2998 colon) was over 100 µM. The GI50 (LOX IMVI melanoma) was 17.1 µM, the TGI (LOX IMVI melanoma) was 31.7 µM and the GI50 (MDA-MB-435) was 23.4 µM. It also gave a TGI (MDA-MB-435) of 58.4 µM, a GI50 (A549 NSCLC) of 27.1 µM and a TGI (A549 NSCLC) of over 100 µM. The GI50 (TK-10 renal) was 27.8 µM, the TGI (TK-10 renal) was 77.7 µM and the GI50 (SK-OV-3 ovarian) was 32.4 µM. It also gave a TGI (SK-OV-3 ovarian) of 81.3 µM, a GI50 (UACC-257 melanoma) of 28.9 µM and a TGI (UACC-257 melanoma) of 71.8 µM. The GI50 (CAKI-1 renal) was 20.3 µM, the TGI (CAKI-1 renal) was 53.6 µM and the GI50 (PC-3 prostate) was 29.8 µM. For the same compound, the TGI (PC-3 prostate) was over 100 µM, the GI50 (M14 melanoma) was 46.1 µM and the TGI (M14 melanoma) was over 100 µM. It also gave a GI50 (OVCAR-8 ovarian) of 30.8 µM, a TGI (OVCAR-8 ovarian) of over 100 µM and a GI50 (NCI-H226 lung) of 21.8 µM. It also gave a TGI (NCI-H226 lung) of 50.5 µM, a GI50 (HOP-92 NSCLC) of 21.9 µM and a TGI (HOP-92 NSCLC) of 63.3 µM. It also gave a GI50 (U251 CNS) of 30.1 µM, a TGI (U251 CNS) of over 100 µM and a GI50 (OVCAR-3 ovarian) of 17.5 µM. For the same compound, the TGI (OVCAR-3 ovarian) was 43.6 µM, the GI50 (ACHN renal) was 26.1 µM and the TGI (ACHN renal) was 86.6 µM. It also gave a GI50 (SF-268 CNS) of 24.4 µM, a TGI (SF-268 CNS) of 55.9 µM and a GI50 (DU-145 prostate) of 19.4 µM. It also gave a TGI (DU-145 prostate) of 65.9 µM, a GI50 (HT29 colon) of 18 µM and a TGI (HT29 colon) of 37.2 µM. The GI50 (K-562 leukemia) was 28.7 µM, the TGI (K-562 leukemia) was over 100 µM and the GI50 (BT-549 breast) was 22.6 µM. For the same compound, the TGI (BT-549 breast) was 52.9 µM, the GI50 (NCI-H460 lung) was 17.8 µM and the TGI (NCI-H460 lung) was 44.6 µM. It also gave a GI50 (A498 renal) of 13.5 µM, a TGI (A498 renal) of 45.3 µM and a GI50 (HCT-116 colon) of 37.6 µM. The TGI (HCT-116 colon) was over 100 µM, the GI50 (NCI-H23 lung) was 38.4 µM and the TGI (NCI-H23 lung) was over 100 µM. The GI50 (UO-31 renal) was 24.3 µM, the TGI (UO-31 renal) was over 100 µM and the GI50 (UACC-62 melanoma) was 16.8 µM. The TGI (UACC-62 melanoma) was 33.2 µM, the GI50 (KM12 colon) was 31.8 µM and the TGI (KM12 colon) was over 100 µM. For the same compound, the GI50 (786-0 renal) was 55 µM, the TGI (786-0 renal) was over 100 µM and the GI50 (SW-620 colon) was 14.1 µM. The TGI (SW-620 colon) was 54.6 µM, the GI50 (NCI/ADR-RES ovarian) was 43.9 µM and the TGI (NCI/ADR-RES ovarian) was over 100 µM. It also gave a GI50 (IGROV1 ovarian) of 24.1 µM, a TGI (IGROV1 ovarian) of 62.6 µM and a GI50 (COLO 205 colon) of 14.7 µM. The TGI (COLO 205 colon) was 30.6 µM, the GI50 (NCI-H522 lung) was 23.7 µM and the TGI (NCI-H522 lung) was 58.3 µM. The GI50 (SF-295 CNS) was 18.3 µM, the TGI (SF-295 CNS) was 45 µM and the GI50 (HCT-15 colon) was 28.5 µM. The TGI (HCT-15 colon) was over 100 µM, the GI50 (RXF 393 renal) was 20.6 µM and the TGI (RXF 393 renal) was 42.6 µM. For the same compound, the GI50 (MCF7 breast) was 17.2 µM, the TGI (MCF7 breast) was 43.9 µM and the GI50 (SK-MEL-5 melanoma) was 14.7 µM. For the same compound, the TGI (SK-MEL-5 melanoma) was 31.6 µM, the GI50 (EKVX NSCLC) was 21.8 µM and the TGI (EKVX NSCLC) was 61.7 µM. It also gave a GI50 (MOLT-4 leukemia) of 30.7 µM, a TGI (MOLT-4 leukemia) of over 100 µM and a GI50 (HS 578T breast) of 17.6 µM. It also gave a TGI (HS 578T breast) of 49.2 µM, a GI50 (SN12C renal) of 23.1 µM and a TGI (SN12C renal) of 72.7 µM. For the same compound, the GI50 (CCRF-CEM leukemia) was 23.2 µM and the TGI (CCRF-CEM leukemia) was over 100 µM.
